In patent publication US9527856B2, “Oxindole compounds carrying a CO-bound spiro substituent and use thereof for treating vasopressin-related diseases” (AbbVie Deutschland GmbH & Co. KG, priority 2014, dated 2016):

What was measured:
[1] = target: human vasopressin V1a receptor (Homo sapiens, UniProt P37288); test: Vasopressin V1a receptor binding assay; conditions: selectivity for human V1b over human V1a, quotient of binding constants
[2] = target: T1, human vasopressin V1b receptor (Homo sapiens, UniProt P47901); test: biochemical; conditions: Ki(h-V1b)* [nM], CHO-K1 cell membranes, displacement of 3H-AVP
T1 sequence (P47901 1-424): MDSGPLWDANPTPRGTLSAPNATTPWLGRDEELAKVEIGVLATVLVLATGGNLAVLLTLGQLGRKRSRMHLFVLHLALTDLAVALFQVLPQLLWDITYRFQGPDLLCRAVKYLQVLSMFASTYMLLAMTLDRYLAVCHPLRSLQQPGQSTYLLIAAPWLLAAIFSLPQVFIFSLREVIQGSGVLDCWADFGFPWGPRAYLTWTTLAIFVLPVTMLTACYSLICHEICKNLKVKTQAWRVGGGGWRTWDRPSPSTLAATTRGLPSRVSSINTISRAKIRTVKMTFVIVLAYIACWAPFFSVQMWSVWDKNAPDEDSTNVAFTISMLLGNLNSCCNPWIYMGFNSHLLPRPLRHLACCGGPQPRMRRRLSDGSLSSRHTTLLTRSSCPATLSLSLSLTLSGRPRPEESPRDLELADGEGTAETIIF

Chain of human vasopressin V1a receptor (P37288 whole entry): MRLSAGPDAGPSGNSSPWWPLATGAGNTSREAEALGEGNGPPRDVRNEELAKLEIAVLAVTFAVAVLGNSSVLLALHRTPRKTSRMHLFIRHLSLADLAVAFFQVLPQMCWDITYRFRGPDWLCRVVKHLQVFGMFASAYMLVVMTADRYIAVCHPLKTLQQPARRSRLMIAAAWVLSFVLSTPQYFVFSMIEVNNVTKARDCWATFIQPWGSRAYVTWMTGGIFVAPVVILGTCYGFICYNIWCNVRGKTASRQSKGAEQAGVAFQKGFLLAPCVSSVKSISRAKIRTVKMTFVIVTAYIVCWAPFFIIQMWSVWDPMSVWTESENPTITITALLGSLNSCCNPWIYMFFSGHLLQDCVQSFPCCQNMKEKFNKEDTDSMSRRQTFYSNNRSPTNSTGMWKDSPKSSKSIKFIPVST

SMILES | Ki(h-V1a)/Ki(h-V1b) [1] | Ki [2] [nM]
CCOc1ncccc1C1(CC(=O)N2CC3(CN(CCN4CCOCC4)C3)C2)C(=O)N(S(=O)(=O)c2ccc(OC)cc2)c2ccc(C#N)cc21 (racemic) [Example 20, 3-(2-Ethoxy-3-pyridyl)-1-(4-methoxyphenyl)sulfonyl-3-[2-[2-(2-morpholinoethyl)-2,6-diazaspiro[3.3]heptan-6-yl]-2-oxo-ethyl]-2-oxo-indoline-5-carbonitrile] | ++ (25-75) | 1 to 10
CCOc1ncccc1C1(NC(=O)N2CC3(C2)CN(C2CCN(C(C)C)CC2)C3)C(=O)N(S(=O)(=O)c2ccc(OC)cc2OC)c2ccc(C#N)cc21 (racemic) [Example 22, (±)-N-[5-Cyano-1-(2,4-dimethoxyphenyl)sulfonyl-3-(2-ethoxy-3-pyridyl)-2-oxo-indolin-3-yl]-2-(1-isopropyl-4-piperidyl)-2,6-diazaspiro[3.3]heptane-6-carboxamide] | +++ (>75) | 1 to 10
CCOc1ncccc1C1(CC(=O)N2CC3(CN(CCN4CCOCC4)C3)C2)C(=O)N(S(=O)(=O)c2ccc(OC)cc2)c2ccc(C#N)cc21 (single isomer, unassigned) [Example 20A, 3-(2-Ethoxy-3-pyridyl)-1-(4-methoxyphenyl)sulfonyl-3-[2-[2-(2-morpholinoethyl)-2,6-diazaspiro[3.3]heptan-6-yl]-2-oxo-ethyl]-2-oxo-indoline-5-carbonitrile] | ++ (25-75) | 1 to 10
CCOc1ncccc1[C@]1(NC(=O)N2CC3(CN(CCN4CCOCC4)C3)C2)C(=O)N(S(=O)(=O)c2ccc(OC)cc2)c2ccc(C#N)cc21 [Example 1, N-[(3S)-5-Cyano-3-(2-ethoxy-3-pyridyl)-1-(4-methoxyphenyl)sulfonyl-2-oxo-indolin-3-yl]-2-(2-morpholinoethyl)-2,6-diazaspiro[3.3]heptane-6-carboxamide] | +++ (>75) | 1 to 10
CCOc1ncccc1[C@]1(NC(=O)N2CC3(CN(CCN4CCOCC4)C3)C2)C(=O)N(S(=O)(=O)c2ccc(OC)cc2)c2ccc(C#N)cc21.O=C(O)C(F)(F)F [Example 1B, N-[(3S)-5-cyano-3-(2-ethoxy-3-pyridyl)-1-(4-methoxyphenyl)sulfonyl-2-oxo-indolin-3-yl]-2-(2-morpholinoethyl)-2,6-diazaspiro[3.3]heptane-6-carboxamide; 2,2,2-trifluoroacetic acid] | +++ (>75) | < 1
CCOc1ncccc1[C@]1(NC(=O)N2CC3(CN(CCCN4CCOCC4)C3)C2)C(=O)N(S(=O)(=O)c2ccc(OC)cc2)c2ccc(C#N)cc21 [Example 2, N-[(3S)-5-Cyano-3-(2-ethoxy-3-pyridyl)-1-(4-methoxyphenyl)sulfonyl-2-oxo-indolin-3-yl]-2-(3-morpholinopropyl)-2,6-diazaspiro[3.3]heptane-6-carboxamide] | +++ (>75) | 10 to 100
CCOc1ncccc1[C@]1(NC(=O)N2CC3(CN(CCN4CCOCC4)C3)C2)C(=O)N(S(=O)(=O)c2ccc(OC)cn2)c2ccc(C#N)cc21 [Example 4, N-[(3S)-5-Cyano-3-(2-ethoxy-3-pyridyl)-1-[(5-methoxy-2-pyridyl)sulfonyl]-2-oxo-indolin-3-yl]-2-(2-morpholinoethyl)-2,6-diazaspiro[3.3]heptane-6-carboxamide] | +++ (>75) | 1 to 10
CCOc1ncccc1[C@]1(NC(=O)N2CC3(CN(CCN4CCOCC4)C3)C2)C(=O)N(S(=O)(=O)c2ccc(C#N)cc2)c2ccc(C#N)cc21 [Example 5, N-[(3S)-5-cyano-1-(4-cyanophenyl)sulfonyl-3-(2-ethoxy-3-pyridyl)-2-oxo-indolin-3-yl]-2-(2-morpholinoethyl)-2,6-diazaspiro[3.3]heptane-6-carboxamide] | +++ (>75) | 10 to 100
CCOc1ncccc1[C@]1(NC(=O)N2CC3(CN(CCN4CCOCC4)C3)C2)C(=O)N(S(=O)(=O)c2ccc(OC)cc2F)c2ccc(C#N)cc21.O=C(O)C(F)(F)F [Example 6, N-[(3S)-5-Cyano-3-(2-ethoxy-3-pyridyl)-1-(2-fluoro-4-methoxy-phenyl)sulfonyl-2-oxo-indolin-3-yl]-2-(2-morpholinoethyl)-2,6-diazaspiro[3.3]heptane-6-carboxamide; 2,2,2-trifluoroacetic acid] | ++ (25-75) | 1 to 10
CCOc1ncccc1[C@]1(NC(=O)N2CC3(CN(CCN4CCOCC4)C3)C2)C(=O)N(S(=O)(=O)c2ccc(OC)cc2OC)c2ccc(C#N)cc21 [Example 7, N-[(3S)-5-Cyano-1-(2,4-dimethoxyphenyl)sulfonyl-3-(2-ethoxy-3-pyridyl)-2-oxo-indolin-3-yl]-2-(2-morpholinoethyl)-2,6-diazaspiro[3.3]heptane-6-carboxamide] | ++ (25-75) | 1 to 10
CCOc1ncccc1[C@]1(NC(=O)N2CC3(CN(CCN4CCOCC4)C3)C2)C(=O)N(S(=O)(=O)c2ccc(F)cc2)c2ccc(C#N)cc21 [Example 8, N-[(3S)-5-Cyano-3-(2-ethoxy-3-pyridyl)-1-(4-fluorophenyl)sulfonyl-2-oxo-indolin-3-yl]-2-(2-morpholinoethyl)-2,6-diazaspiro[3.3]heptane-6-carboxamide] | ++ (25-75) | 10 to 100
CCOc1ncccc1[C@]1(NC(=O)N2CC3(CN(CCN(CC)CC)C3)C2)C(=O)N(S(=O)(=O)c2ccc(OC)cc2)c2ccc(C#N)cc21 [Example 9, N-[(3S)-5-Cyano-3-(2-ethoxy-3-pyridyl)-1-(4-methoxyphenyl)sulfonyl-2-oxo-indolin-3-yl]-2-(2-diethylaminoethyl)-2,6-diazaspiro[3.3]heptane-6-carboxamide] | +++ (>75) | 1 to 10
CCOc1ncccc1[C@]1(NC(=O)N2CC3(CN(CCN4CCOCC4)C3)C2)C(=O)N(S(=O)(=O)c2ccc(C)cc2)c2ccc(C#N)cc21.O=C(O)C(F)(F)F [Example 10, N-[(3S)-5-Cyano-3-(2-ethoxy-3-pyridyl)-2-oxo-1-(p-tolylsulfonyl)indolin-3-yl]-2-(2-morpholinoethyl)-2,6-diazaspiro[3.3]heptane-6-carboxamide; 2,2,2-trifluoroacetic acid] | ++ (25-75) | 1 to 10
CCOc1ncccc1[C@]1(NC(=O)N2CC3(CN(CCN4CCOCC4)C3)C2)C(=O)N(S(=O)(=O)c2ccccc2OC)c2ccc(C#N)cc21.O=C(O)C(F)(F)F [Example 11, N-[(3S)-5-Cyano-3-(2-ethoxy-3-pyridyl)-1-(2-methoxyphenyl)sulfonyl-2-oxo-indolin-3-yl]-2-(2-morpholinoethyl)-2,6-diazaspiro[3.3]heptane-6-carboxamide; 2,2,2-trifluoroacetic acid] | +++ (>75) | 1 to 10
COc1ccc(S(=O)(=O)N2C(=O)[C@@](NC(=O)N3CC4(CN(CCN5CCOCC5)C4)C3)(c3cccnc3OC)c3cc(C#N)ccc32)cc1.O=C(O)C(F)(F)F [Example 12, N-[(3S)-5-Cyano-1-(4-methoxyphenyl)sulfonyl-3-(2-methoxy-3-pyridyl)-2-oxo-indolin-3-yl]-2-(2-morpholinoethyl)-2,6-diazaspiro[3.3]heptane-6-carboxamide; 2,2,2-trifluoroacetic acid] | + (10-<25) | 1 to 10
CCOc1ncccc1[C@]1(NC(=O)N2CC3(CN(CCN4CCCCC4)C3)C2)C(=O)N(S(=O)(=O)c2ccc(OC)cc2)c2ccc(C#N)cc21 [Example 13, N-[(3S)-5-Cyano-3-(2-ethoxy-3-pyridyl)-1-(4-methoxyphenyl)sulfonyl-2-oxo-indolin-3-yl]-2-[2-(1-piperidyl)ethyl]-2,6-diazaspiro[3.3]heptane-6-carboxamide] | ++ (25-75) | < 1
CCOc1ncccc1[C@]1(NC(=O)N2CC3(CN(CCN4CCOCC4)C3)C2)C(=O)N(S(=O)(=O)c2ccccc2OC)c2ccc(C#N)cc21 [Example 14, N-[(3S)-5-Cyano-3-(2-ethoxy-3-pyridyl)-1-(2-methoxyphenyl)sulfonyl-2-oxo-indolin-3-yl]-2-(2-morpholinoethyl)-2,6-diazaspiro[3.3]heptane-6-carboxamide] | +++ (>75) | 10 to 100
CCOc1ncccc1[C@]1(NC(=O)N2CC3(CN(CCN4CCOCC4)C3)C2)C(=O)N(S(=O)(=O)c2ccc(C)cc2)c2ccc(C#N)cc21 [Example 16, N-[(3S)-5-Cyano-3-(2-ethoxy-3-pyridyl)-2-oxo-1-(p-tolylsulfonyl)indolin-3-yl]-2-(2-morpholinoethyl)-2,6-diazaspiro[3.3]heptane-6-carboxamide] | ++ (25-75) | –
CCOc1ncccc1C1(NC(=O)N2CCC3(CCN(CC)CC3)CC2)C(=O)N(S(=O)(=O)c2ccc(OC)cc2OC)c2ccc(C#N)cc21 (stereo not shown) [Example 56, N-(5-Cyano-1-(2,4-dimethoxyphenylsulfonyl)-3-(2-ethoxypyridin-3-yl)-2-oxoindolin-3-yl)-9-ethyl-3,9-diazaspiro[5.5]undecane-3-carboxamide 2,2,2-trifluoroacetate] | – | 10 to 100
CCOc1ncccc1C1(NC(=O)C2CC3(CNC3)C2)C(=O)N(S(=O)(=O)c2ccc(OC)cc2OC)c2ccc(C#N)cc21 (stereo not shown) [Example 57, N-(5-Cyano-1-(2,4-dimethoxyphenylsulfonyl)-3-(2-ethoxypyridin-3-yl)-2-oxoindolin-3-yl)-2-azaspiro[3.3]heptane-6-carboxamide 2,2,2-trifluoroacetate] | – | 10 to 100
